As usually defined, the inhibition is the share of the control response that was lost under treatment.

The target of this assay is T1, human Nav1.6 (hNav1.6) (Homo sapiens, UniProt Q9UQD0).
T1 construct: expressed in transfected cells; host or cells: HEK-293 (G418 selection)
T1 sequence (Q9UQD0 whole entry): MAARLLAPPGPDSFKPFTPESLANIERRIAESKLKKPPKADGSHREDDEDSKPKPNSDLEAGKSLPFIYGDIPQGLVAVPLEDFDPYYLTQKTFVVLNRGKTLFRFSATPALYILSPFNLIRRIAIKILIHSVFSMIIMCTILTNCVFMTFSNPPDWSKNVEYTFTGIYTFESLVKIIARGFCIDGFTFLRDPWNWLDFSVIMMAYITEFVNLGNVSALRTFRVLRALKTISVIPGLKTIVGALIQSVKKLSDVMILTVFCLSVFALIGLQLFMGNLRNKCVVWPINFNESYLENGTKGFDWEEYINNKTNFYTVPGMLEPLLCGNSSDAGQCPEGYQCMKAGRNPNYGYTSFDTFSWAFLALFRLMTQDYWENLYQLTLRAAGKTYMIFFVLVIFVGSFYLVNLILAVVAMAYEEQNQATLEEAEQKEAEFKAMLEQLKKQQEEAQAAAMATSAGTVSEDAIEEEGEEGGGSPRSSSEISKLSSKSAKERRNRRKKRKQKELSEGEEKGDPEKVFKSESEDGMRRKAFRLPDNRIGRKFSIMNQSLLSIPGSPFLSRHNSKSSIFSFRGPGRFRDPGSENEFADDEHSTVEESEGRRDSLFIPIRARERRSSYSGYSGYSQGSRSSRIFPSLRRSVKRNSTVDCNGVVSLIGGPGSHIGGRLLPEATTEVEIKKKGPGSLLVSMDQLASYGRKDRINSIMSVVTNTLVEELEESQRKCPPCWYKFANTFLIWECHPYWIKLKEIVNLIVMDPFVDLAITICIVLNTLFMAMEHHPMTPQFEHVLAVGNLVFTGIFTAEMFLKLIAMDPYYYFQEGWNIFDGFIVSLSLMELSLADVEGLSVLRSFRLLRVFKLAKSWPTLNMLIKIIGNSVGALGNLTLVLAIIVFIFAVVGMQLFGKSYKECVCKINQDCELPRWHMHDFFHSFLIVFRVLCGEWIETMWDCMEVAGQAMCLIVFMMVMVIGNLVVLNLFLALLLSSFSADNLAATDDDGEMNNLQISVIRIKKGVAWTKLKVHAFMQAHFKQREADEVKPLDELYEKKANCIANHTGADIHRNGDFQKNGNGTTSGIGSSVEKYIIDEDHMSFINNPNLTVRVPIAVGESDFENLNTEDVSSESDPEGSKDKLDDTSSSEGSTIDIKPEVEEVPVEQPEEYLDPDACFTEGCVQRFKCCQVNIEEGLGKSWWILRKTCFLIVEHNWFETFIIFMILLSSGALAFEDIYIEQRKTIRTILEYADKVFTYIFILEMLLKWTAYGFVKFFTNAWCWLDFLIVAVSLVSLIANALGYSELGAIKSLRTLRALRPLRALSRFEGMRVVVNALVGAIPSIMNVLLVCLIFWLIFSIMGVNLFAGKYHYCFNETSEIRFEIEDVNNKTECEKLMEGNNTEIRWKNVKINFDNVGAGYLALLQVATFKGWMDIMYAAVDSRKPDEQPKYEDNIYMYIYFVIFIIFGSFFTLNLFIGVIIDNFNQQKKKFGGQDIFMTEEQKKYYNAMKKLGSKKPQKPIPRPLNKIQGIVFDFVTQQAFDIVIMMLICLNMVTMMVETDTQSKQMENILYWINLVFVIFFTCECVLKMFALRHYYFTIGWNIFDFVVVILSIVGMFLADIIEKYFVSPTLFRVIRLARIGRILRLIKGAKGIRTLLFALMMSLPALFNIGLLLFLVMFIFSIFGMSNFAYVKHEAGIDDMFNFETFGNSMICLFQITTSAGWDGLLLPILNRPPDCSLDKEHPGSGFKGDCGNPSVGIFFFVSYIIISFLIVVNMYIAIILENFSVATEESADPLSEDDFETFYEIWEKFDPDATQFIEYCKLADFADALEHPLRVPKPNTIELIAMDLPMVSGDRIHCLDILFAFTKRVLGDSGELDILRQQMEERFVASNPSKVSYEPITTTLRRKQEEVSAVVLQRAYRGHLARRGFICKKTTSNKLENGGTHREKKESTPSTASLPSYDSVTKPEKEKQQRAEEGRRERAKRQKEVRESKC
Kind of assay: Modulation of late sodium current (INaL), PatchXpress electrophysiology. It is filed as cell-based. Conditions: HEK293; 1 μM compound; HEK-293 cells expressing recombinant human Nav channel; late current evoked by 300 nM ATX-II; steady-state inhibition; read-out: INaL v1.6 (1 μM, % Inhibition). How it is done:
Functional characterization of exemplary compounds to modulate INaL expressed by the Nav1.6 voltage-gated sodium channel was accomplished using the PatchXpress™ high throughput electrophysiology platform (Molecular Devices, Sunnyvale, Calif.). HEK-293 cells expressing recombinant, human Nav1.6 (hNav1.6) were grown in DMEM/high-glucose Dulbecco's modified, 10% FBS, 2 mM sodium pyruvate, 10 mM HEPES and 400 μg/mL G418. Cells were grown to 50%-80% confluency prior to harvesting. Trypsinized cells were washed, allowed to recover for 1 hour and then resuspended in extracellular recording solution at a concentration of 1×10^6 cells/ml. The onboard liquid handling facility of the PatchXpress was used for dispensing cells and applying test compounds. Nav late currents were evoked by the application of 300 nM ATX-II. INaL was evoked by depolarizing pulses to 0 mV for 200 ms from a non-inactivating holding potential (e.g., −120 mV) at a frequency of 0.1 Hz. INaL amplitude and stability were determined by analyzing the mean current amplitude over the final 20 ms of the test pulse. […] Percent steady-state inhibition of INaL was calculated as: [(INaL_compound)/(INaL_control)]*100, where INaL_compound and INaL_control represent INaL recorded in the presence or absence of compound, respectively.
As for `O=c1oc2ccc(-c3ccc(OC(F)(F)F)cc3)cc2n1CC1CCCCO1` (centres unmarked) [Compound 57], the inhibition at 1 µM is greater than 70%.

On to `O=c1oc2ccc(-c3ccc(OC(F)(F)F)cc3)cc2n1CC1CCOC1` (centres unmarked) [Compound 68], for which the inhibition at 1 µM was greater than 70%.

Regarding `CCn1c(=O)oc2ccc(-c3cnc(OCC(F)(F)F)c(F)c3)nc21` [Compound 71], the inhibition at 1 µM is less than 30%.

For `O=c1oc2ccc(-c3ccc(OC(F)(F)F)cc3)cc2n1CC1CCCOC1` (centres unmarked) [Compound 72], the inhibition at 1 µM is greater than 70%.

On to `Cn1c(=O)oc2ccc(-c3ccc(OC(F)(F)F)cc3)nc21` [Compound 75], for which the inhibition at 1 µM is greater than 70%.

`CCn1c(=O)oc2ccc(-c3ccc(OC(F)(F)F)cc3)nc21` [Compound 76]: the inhibition at 1 µM is greater than 70%.

Consider `CC(C)n1c(=O)oc2ccc(-c3ccc(OC(F)(F)F)cc3)nc21` [Compound 78], for which the inhibition at 1 µM was greater than 70%.

For the compound `O=C(Cn1c(=O)oc2ccc(-c3ccc(OC(F)(F)F)cc3)nc21)N1CCCC1` [Compound 79], the inhibition at 1 µM lay within 30 to 70%.

With `CN(CC(F)(F)F)C(=O)Cn1c(=O)oc2ccc(-c3ccc(OC(F)(F)F)cc3)cc21` [Compound 80], the inhibition at 1 µM lay in the range of 30 to 70%.

Regarding `O=c1oc2ccc(-c3ccc(OC(F)(F)F)cc3)cc2n1Cc1cncnc1` [Compound 84], the inhibition at 1 µM is greater than 70%.

For `CCN(C)C(=O)Cn1c(=O)oc2ccc(-c3ccc(OC(F)(F)F)cc3)cc21` [Compound 85], the inhibition at 1 µM lay within 30 to 70%.

Consider `O=c1oc2ccc(-c3ccc(OC(F)(F)F)cc3)nc2n1CC(F)F` [Compound 86], for which the inhibition at 1 µM is greater than 70%.

For the compound `O=c1oc2ccc(-c3ccc(OC(F)(F)F)cc3)nc2n1CCc1ncccn1` [Compound 87], the inhibition at 1 µM is 30 to 70%.

With `CC(O)CCn1c(=O)oc2ccc(-c3ccc(OC(F)(F)F)cc3)nc21` (centres unmarked) [Compound 89], the inhibition at 1 µM was greater than 70%.

With `O=c1oc2ccc(-c3ccc(OC(F)(F)F)cc3)nc2n1CCCO` [Compound 90], the inhibition at 1 µM is 30 to 70%.

For `[2H]C([2H])([2H])C([2H])([2H])n1c(=O)oc2ccc(-c3ccc(OC(F)(F)F)cc3)nc21` [Compound 91], the inhibition at 1 µM lay within 30 to 70%.

As to `O=c1oc2ncc(-c3ccc(OC(F)(F)F)cc3)cc2n1CCc1ncccn1` [Compound 92], the inhibition at 1 µM is less than 30%.

Regarding `[2H]C([2H])([2H])n1c(=O)oc2ccc(-c3ccc(OC(F)(F)F)cc3)nc21` [Compound 93], the inhibition at 1 µM is greater than 70%.

Regarding `CCn1c(=O)oc2ccc(-c3cnc(OCC(F)(F)F)c(F)c3)cc21` [Compound 96], the inhibition at 1 µM was 30 to 70%.

Turning to `C[C@@H](O)CCn1c(=O)oc2ccc(-c3ccc(OC(F)(F)F)cc3)cc21` [Compound 97], the inhibition at 1 µM was greater than 70%.

Consider `C[C@H](O)CCn1c(=O)oc2ccc(-c3ccc(OC(F)(F)F)cc3)cc21` [Compound 98], for which the inhibition at 1 µM was in the range of 30 to 70%.

With `O=c1oc2ccc(-c3ccc(OC(F)(F)F)cc3)nc2n1CC1CCOCC1` [Compound 101], the inhibition at 1 µM was greater than 70%.

Consider `O=c1oc2ccc(-c3ccc(OC(F)(F)F)cc3)nc2n1CC1COC1` [Compound 102], for which the inhibition at 1 µM was greater than 70%.

`O=c1oc2ccc(-c3ccc(OC(F)(F)F)cc3)nc2n1Cc1cncnc1` [Compound 103]: the inhibition at 1 µM was greater than 70%.

`O=c1oc2ccc(-c3ccc(OC(F)(F)F)cc3)cc2n1C[C@@H]1CCCO1` [Compound 104]: the inhibition at 1 µM was greater than 70%.

In the case of `O=c1oc2ccc(-c3ccc(OC(F)(F)F)cc3)cc2n1C[C@H]1CCCO1` [Compound 105], the inhibition at 1 µM was greater than 70%.

Regarding `CC(=O)N1CCC[C@@H]1Cn1c(=O)oc2ccc(-c3ccc(OC(F)(F)F)cc3)cc21` [Compound 109], the inhibition at 1 µM was greater than 70%.

For `CC(=O)N1CCC[C@H]1Cn1c(=O)oc2ccc(-c3ccc(OC(F)(F)F)cc3)cc21` [Compound 111], the inhibition at 1 µM lay in the range of 30 to 70%.

`CS(=O)(=O)N1CCC[C@H]1Cn1c(=O)oc2ccc(-c3ccc(OC(F)(F)F)cc3)cc21` [Compound 113]: the inhibition at 1 µM was in the range of 30 to 70%.

Turning to `O=C(Cn1c(=O)oc2ccc(-c3ccc(OC(F)(F)F)cc3)cc21)N1CC[C@@H](O)C1` [Compound 114], the inhibition at 1 µM is less than 30%.

In the case of `O=C(Cn1c(=O)oc2ccc(-c3ccc(OC(F)(F)F)cc3)cc21)N1CC[C@H](O)C1` [Compound 115], the inhibition at 1 µM was less than 30%.

Take `O=c1oc2ccc(-c3ccc(OC(F)(F)F)cc3)cc2n1CCc1cncnc1` [Compound 117]: the inhibition at 1 µM is greater than 70%.

Consider `CS(=O)(=O)N1CCC[C@@H]1Cn1c(=O)oc2ccc(-c3ccc(OC(F)(F)F)cc3)cc21` [Compound 118], for which the inhibition at 1 µM is less than 30%.

Take `O=C(Cn1c(=O)oc2ccc(-c3ccc(OC(F)(F)F)cc3)nc21)N1CCCCC1` [Compound 119]: the inhibition at 1 µM is greater than 70%.

With `O=c1oc2ccc(-c3ccc(OC(F)(F)F)cc3)cc2n1CCc1cnccn1` [Compound 120], the inhibition at 1 µM is greater than 70%.

`Cc1cc(OC(F)(F)F)ccc1-c1ccc2oc(=O)n(CCc3ncccn3)c2n1` [Compound 121]: the inhibition at 1 µM lay in the range of 30 to 70%.

For `O=c1oc2ccc(-c3cnc(OCC(F)(F)F)c(F)c3)nc2n1CCc1ncccn1` [Compound 122], the inhibition at 1 µM was less than 30%.

`O=c1oc2ccc(-c3ccc(OC(F)(F)F)cc3)nc2n1CCc1cnccn1` [Compound 123]: the inhibition at 1 µM was greater than 70%.

For `O=c1oc2ccc(-c3ccc(OC(F)(F)F)cc3)nc2n1CCc1cncnc1` [Compound 124], the inhibition at 1 µM is greater than 70%.

Consider `CO[C@H]1CCN(C(=O)Cn2c(=O)oc3ccc(-c4ccc(OC(F)(F)F)cc4)cc32)C1` [Compound 125], for which the inhibition at 1 µM was less than 30%.

As to `CO[C@@H]1CCN(C(=O)Cn2c(=O)oc3ccc(-c4ccc(OC(F)(F)F)cc4)cc32)C1` [Compound 126], the inhibition at 1 µM was in the range of 30 to 70%.

In the case of `O=c1oc2ccc(-c3ccc(OC(F)(F)F)cc3)cc2n1Cc1cnccn1` [Compound 131], the inhibition at 1 µM was greater than 70%.

As for `O=c1oc2ccc(-c3ccc(OC(F)(F)F)cc3)cc2n1Cc1ccncn1` [Compound 132], the inhibition at 1 µM was greater than 70%.

Turning to `C[C@@H]1CCCN1C(=O)Cn1c(=O)oc2ccc(-c3ccc(OC(F)(F)F)cc3)nc21` [Compound 134], the inhibition at 1 µM is greater than 70%.

As for `O=c1oc2ccc(-c3ccc(OC(F)F)cc3)nc2n1CCc1ncccn1` [Compound 136], the inhibition at 1 µM is less than 30%.

On to `O=C(Cn1c(=O)oc2ccc(-c3cnc(OCC(F)(F)F)c(F)c3)nc21)N1CCCC1` [Compound 137], for which the inhibition at 1 µM is less than 30%.

Consider `O=c1oc2ccc(-c3ccc(OC(F)(F)F)cc3)nc2n1Cc1ccncn1` [Compound 141], for which the inhibition at 1 µM lay within 30 to 70%.

`O=C1CCCN1CCn1c(=O)oc2ccc(-c3ccc(OC(F)(F)F)cc3)nc21` [Compound 142]: the inhibition at 1 µM is less than 30%.

As for `O=c1oc2ccc(-c3ccc(OC(F)(F)F)cc3)nc2n1Cc1cnccn1` [Compound 143], the inhibition at 1 µM is greater than 70%.

With `Cc1cc(OC(F)(F)F)ccc1-c1ccc2oc(=O)n(CC(=O)N3CCCC3)c2n1` [Compound 144], the inhibition at 1 µM was less than 30%.

For `O=c1oc2ccc(-c3ccc(OC(F)(F)F)cc3)nc2n1CCc1ccncn1` [Compound 146], the inhibition at 1 µM is greater than 70%.

Turning to `O=c1oc2ccc(-c3ccc(OC(F)(F)F)cc3)cc2n1CCc1ccncn1` [Compound 147], the inhibition at 1 µM is greater than 70%.

Take `O=C(Cn1c(=O)oc2ccc(-c3ccc(OC(F)F)cc3)cc21)N1CCCC1` [Compound 148]: the inhibition at 1 µM was less than 30%.

On to `Cn1cc(Cn2c(=O)oc3ccc(-c4ccc(OC(F)(F)F)cc4)nc32)cn1` [Compound 151], for which the inhibition at 1 µM was greater than 70%.

As to `Cc1noc(C)c1Cn1c(=O)oc2ccc(-c3ccc(OC(F)(F)F)cc3)nc21` [Compound 152], the inhibition at 1 µM was less than 30%.

With `Cc1nnc(Cn2c(=O)oc3ccc(-c4ccc(OC(F)(F)F)cc4)nc32)o1` [Compound 153], the inhibition at 1 µM fell in the range of 30 to 70%.

For the compound `Cc1oncc1Cn1c(=O)oc2ccc(-c3ccc(OC(F)(F)F)cc3)nc21` [Compound 154], the inhibition at 1 µM is greater than 70%.

As to `Cc1nnc(Cn2c(=O)oc3ccc(-c4ccc(OC(F)(F)F)cc4)nc32)s1` [Compound 155], the inhibition at 1 µM was greater than 70%.

Regarding `Cc1cc(Cn2c(=O)oc3ccc(-c4ccc(OC(F)(F)F)cc4)nc32)no1` [Compound 156], the inhibition at 1 µM was greater than 70%.

Turning to `Cn1cnc(Cn2c(=O)oc3ccc(-c4ccc(OC(F)(F)F)cc4)nc32)n1` [Compound 157], the inhibition at 1 µM was in the range of 30 to 70%.

Take `Cn1nccc1Cn1c(=O)oc2ccc(-c3ccc(OC(F)(F)F)cc3)nc21` [Compound 158]: the inhibition at 1 µM fell in the range of 30 to 70%.

Take `Cc1nc(Cn2c(=O)oc3ccc(-c4ccc(OC(F)(F)F)cc4)nc32)co1` [Compound 159]: the inhibition at 1 µM was greater than 70%.

As for `Cc1cc(Cn2c(=O)oc3ccc(-c4ccc(OC(F)(F)F)cc4)nc32)on1` [Compound 160], the inhibition at 1 µM is greater than 70%.

In the case of `Cc1noc(Cn2c(=O)oc3ccc(-c4ccc(OC(F)(F)F)cc4)nc32)n1` [Compound 161], the inhibition at 1 µM is greater than 70%.

On to `Cc1nc(Cn2c(=O)oc3ccc(-c4ccc(OC(F)(F)F)cc4)nc32)no1` [Compound 162], for which the inhibition at 1 µM is greater than 70%.

The values are drawn from patent US11492345B2, “Compounds and their methods of use” (Praxis Precision Medicines, Inc., priority 2017, dated 2022).
